Experimental data reported in PMC8596301 (Frontiers in Pharmacology, 2021).
Read-outs that look alike come from different tables or passages of the source.

Experiments:
HA-mouse µOR [1] = biological target: T1, HA-mouse µOR (Mus musculus, UniProt P42866); assay: cell-based
T1 construct: expressed in transfected cells; host or cells: HEK cells (HEK-293), transient, co-transfected with pGloSensor22F

κOR = κOR (Homo sapiens, UniProt P41145); assay: biochemical; type: binding
WT and δOR KO mice = assay: Seizure assay (modified Racine scale); type: in vivo, mouse
Method: To assess drug-induced seizurogenic activity, mice were placed in a clear plastic cylinder (25 cm diameter, 35 cm height) immediately following drug injection and their activity was recorded in a well-lit, quiet room using iSpy camera software (iSpyConnect.com). A recording time of 90 min was chosen for the tested compounds based on previous observations of seizures time lengths in experiments with 30 mg∙kg^−1 paynantheine. If animals were not presenting with seizure activity after 30 min, the recording time was shortened accordingly. Seizure severity was scored based on the modified Racine scale (half-scores allowed) in bins of 3–5 min. Onset to first seizure symptom, onset to highest Racine score, and highest Racine score were also assessed. A summary of all statistical analyses for the seizure data can be found in Supplemental Table S3. In brief, seizure-like behavior between wild type and δOR KO mice was compared with a two-tailed, unpaired t test with Welch’s correction on area under the curve data generated from graphing the highest Racine score per time bin over 90 min for each mouse.

FLAG-mouse κOR [2] = biological target: T2, FLAG-mouse κOR (Mus musculus, UniProt P33534); assay: cell-based
T2 construct: expressed in transfected cells; host or cells: HEK cells (HEK-293), transient, co-transfected with pGloSensor22F

δOR = δOR (Homo sapiens, UniProt P41143); assay: biochemical; type: binding
[3] = Maximum tolerated dose (side effect profile); conditions: C57Bl/6, mouse, in vivo, sc, 10 mg∙kg^−1
C57Bl/6 male mice [4] = assay: Tail flick thermal nociception assay; type: in vivo, mouse
δOR KO mice = assay: Two-bottle choice alcohol paradigm (drinking in the dark, 10% ethanol vs. water); type: in vivo, mouse; conditions: for Ethanol consumption: δOR KO male mice
Method: (§1) Mice were subject to drinking in the dark (DID), limited access (4 h per day), two-bottle choice (10% ethanol vs. water) paradigm in which they were trained to consume alcohol voluntarily as previously described ([Rhodes et al., 2005]; [van Rijn and Whistler, 2009]). Mice reached stable alcohol consumption within 3 weeks of training, and after the third week, drug injections were administered prior to the daily drinking session on Friday. Drug’s effect on alcohol consumption was measured as the change in Friday’s alcohol intake minus the average alcohol intake from the preceding Tuesday–Thursday of that week (g∙kg^−1). A summary of all statistical analyses for the drinking data can be found in Supplemental Tables S6–S9. In brief, results from two-bottle choice alcohol consumption paradigms were assessed for statistical significance using RM two-way ANOVA for main effects of drug dose, treatment day, and drug dose × treatment day; Sidak’s multiple comparisons (MC) between alcohol consumption baseline (Tuesday–Thursday average) vs. treatment day consumption (Friday) were then used as the post hoc test for each drug dose tested. The same RM two-way ANOVA and Sidak’s MC post hoc analyses were used for water consumption and ethanol preference data. […] Sex differences between baseline data were evaluated using RM two-way ANOVA for main effects of sex, treatment baseline, and sex × treatment baseline; Sidak’s multiple comparisons (MC) between male and female mice were then used as the post hoc test for each treatment week tested.

wild-type C57Bl/6 mice [5] = assay: as above; type: in vivo, mouse
Method: as §1

C57Bl/6 male mice [6] = assay: Brief and extended conditioned place preference paradigms; type: in vivo, mouse
Description: Mice were conditioned to drugs and vehicle as described previously in two-chamber conditioned place preference (CPP) boxes in a counterbalanced, unbiased approach for either two drug conditioning sessions over 2 days (brief) or four drug conditioning sessions over 8 days (extended) ([Váradi et al., 2015]; [Gutridge et al., 2020]). For brief and extended conditioned place preference experiments, separate groups of mice were used for each drug dose. A summary of all statistical analyses for the CPP data can be found in Supplemental Table S4. In brief, all CPP data were analyzed with two-tailed, paired t tests comparing time spent on the drug-paired side pre- and post-conditioning.

C57Bl/6 male mice [7] = assay: Locomotor evaluation (ambulation)
FLAG-mouse δOR [8] = biological target: T3, FLAG-mouse δOR (Mus musculus, UniProt P32300); assay: cell-based
T3 construct: expressed in transfected cells; host or cells: HEK cells (HEK-293), transient, co-transfected with pGloSensor22F

FLAG-mouse δOR [9] = biological target: T3, FLAG-mouse δOR; design: method as in Gutridge et al., 2020; conditions: cited from earlier work
human ORs = system: human ORs; design: method as in Kruegel et al., 2016; conditions: ref Kruegel et al., 2016; cited from earlier work
FLAG-mouse κOR [10] = biological target: T2, FLAG-mouse κOR; design: method as in Gutridge et al., 2020; conditions: cited from earlier work
μOR = μOR (Homo sapiens, UniProt P35372); assay: biochemical; type: binding
HA-mouse µOR [11] = biological target: T1, HA-mouse µOR; conditions: cited from earlier work
C57Bl/6 male mice [12] = conditions: ref Gutridge et al., 2020; cited from earlier work
[13] = design: method as in Kamble et al., 2021; conditions: rats; oral; 1.1 mg∙kg^−1; ref Kamble et al., 2021; cited from earlier work
wild-type C57Bl/6 mice [14] = conditions: 10 and 30 mg∙kg^−1; male mice; ref Gutridge et al., 2020; cited from earlier work
[15] = HEK293, read-out: cAMP α (% inhibition at maximal efficacy)
[16] = 10 mg∙kg^−1 s.c., WT male and female mice
[17] = 7-hydroxyspeciogynine 10 mg∙kg^−1 s.c., WT male mice
[18] = ref Gutridge et al., 2020, read-out: cAMP IC50

Sequence of κOR (P41145 whole entry): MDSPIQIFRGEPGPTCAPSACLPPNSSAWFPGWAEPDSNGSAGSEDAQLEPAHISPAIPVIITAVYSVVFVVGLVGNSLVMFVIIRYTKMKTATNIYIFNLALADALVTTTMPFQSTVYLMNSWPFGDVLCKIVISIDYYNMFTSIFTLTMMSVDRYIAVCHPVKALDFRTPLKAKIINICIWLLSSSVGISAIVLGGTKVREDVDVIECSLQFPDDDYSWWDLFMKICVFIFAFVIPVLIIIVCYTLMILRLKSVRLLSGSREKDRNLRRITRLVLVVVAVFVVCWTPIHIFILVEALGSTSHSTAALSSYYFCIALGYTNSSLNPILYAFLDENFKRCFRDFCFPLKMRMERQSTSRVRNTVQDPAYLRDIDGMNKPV
T2 sequence (P33534 whole entry): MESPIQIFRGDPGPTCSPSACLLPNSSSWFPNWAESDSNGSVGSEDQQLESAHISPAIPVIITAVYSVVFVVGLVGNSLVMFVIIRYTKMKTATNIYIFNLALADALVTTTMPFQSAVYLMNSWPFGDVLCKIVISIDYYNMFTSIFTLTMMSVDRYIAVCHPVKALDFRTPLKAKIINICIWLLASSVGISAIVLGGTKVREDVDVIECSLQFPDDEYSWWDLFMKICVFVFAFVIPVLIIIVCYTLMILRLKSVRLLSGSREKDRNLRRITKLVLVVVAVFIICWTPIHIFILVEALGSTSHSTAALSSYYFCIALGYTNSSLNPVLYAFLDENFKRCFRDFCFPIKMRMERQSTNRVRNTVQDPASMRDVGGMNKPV
T3 sequence (P32300 whole entry): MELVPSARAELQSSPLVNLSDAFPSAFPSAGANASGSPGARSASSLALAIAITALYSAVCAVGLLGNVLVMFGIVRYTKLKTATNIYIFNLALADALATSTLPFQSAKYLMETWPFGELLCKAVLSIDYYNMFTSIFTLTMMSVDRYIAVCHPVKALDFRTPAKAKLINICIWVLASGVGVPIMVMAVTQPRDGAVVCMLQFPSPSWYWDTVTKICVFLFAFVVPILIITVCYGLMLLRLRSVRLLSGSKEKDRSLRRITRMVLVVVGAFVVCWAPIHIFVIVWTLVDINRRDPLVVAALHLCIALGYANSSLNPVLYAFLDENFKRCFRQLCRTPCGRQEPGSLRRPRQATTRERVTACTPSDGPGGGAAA
T1 sequence (P42866 whole entry): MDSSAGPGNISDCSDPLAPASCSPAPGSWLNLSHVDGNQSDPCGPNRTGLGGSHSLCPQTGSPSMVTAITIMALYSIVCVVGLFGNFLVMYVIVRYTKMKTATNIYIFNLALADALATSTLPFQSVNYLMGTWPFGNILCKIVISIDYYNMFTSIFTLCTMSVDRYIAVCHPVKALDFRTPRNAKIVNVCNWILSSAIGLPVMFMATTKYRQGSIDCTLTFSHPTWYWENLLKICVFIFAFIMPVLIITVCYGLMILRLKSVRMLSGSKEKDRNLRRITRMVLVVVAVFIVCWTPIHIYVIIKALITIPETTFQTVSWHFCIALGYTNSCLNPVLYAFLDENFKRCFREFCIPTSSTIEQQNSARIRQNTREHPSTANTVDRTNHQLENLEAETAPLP
Sequence of μOR (P35372 whole entry): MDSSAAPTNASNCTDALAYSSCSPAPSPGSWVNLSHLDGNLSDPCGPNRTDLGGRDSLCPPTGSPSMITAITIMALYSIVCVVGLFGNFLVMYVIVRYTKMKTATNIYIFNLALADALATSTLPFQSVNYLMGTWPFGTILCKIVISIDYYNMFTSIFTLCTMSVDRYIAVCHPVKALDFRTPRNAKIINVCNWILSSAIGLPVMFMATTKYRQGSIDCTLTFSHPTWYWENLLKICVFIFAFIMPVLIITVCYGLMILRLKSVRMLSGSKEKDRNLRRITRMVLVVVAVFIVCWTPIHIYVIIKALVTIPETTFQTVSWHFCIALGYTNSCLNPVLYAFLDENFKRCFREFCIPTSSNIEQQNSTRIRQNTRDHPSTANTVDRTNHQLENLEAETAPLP
Sequence of δOR (P41143 whole entry): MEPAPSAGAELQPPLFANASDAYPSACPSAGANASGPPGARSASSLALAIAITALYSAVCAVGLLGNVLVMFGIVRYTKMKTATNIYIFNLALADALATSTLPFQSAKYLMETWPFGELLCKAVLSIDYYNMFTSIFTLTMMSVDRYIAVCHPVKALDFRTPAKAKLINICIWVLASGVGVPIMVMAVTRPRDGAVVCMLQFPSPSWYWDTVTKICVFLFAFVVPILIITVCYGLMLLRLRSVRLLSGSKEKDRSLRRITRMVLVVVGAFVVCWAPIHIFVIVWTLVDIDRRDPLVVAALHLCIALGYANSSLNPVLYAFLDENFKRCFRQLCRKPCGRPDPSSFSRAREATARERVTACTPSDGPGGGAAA

CC[C@H]1CN2CC[C@@]3(O)C(=Nc4cccc(OC)c43)[C@@H]2C[C@@H]1/C(=C\OC)C(=O)OC [7OH SPG, 7-Hydroxyspeciogynine]
IC50 (HA-mouse µOR [1]): 0.61 µM
Emax (HA-mouse µOR [1]; [15]): 66 ± 6%
Ki (κOR; Binding Ki (µM)): 1.63 µM
Seizures (WT and δOR KO mice; 10 mg∙kg^−1 s.c., 30 min): nor induce noticeable seizures
IC50 (FLAG-mouse κOR [2]): 7.71 µM
Emax (FLAG-mouse κOR [2]; [15]): 80 ± 20%
Ki (δOR): 0.46 µM
MTD at 10 days [3]: ≥ 10 mg/kg
Block of morphine analgesia (C57Bl/6 male mice [4]; 10 mg∙kg^−1 s.c., then morphine 6 mg∙kg^−1 s.c. 10 min later): did not produce antinociception (paired, two-tailed t test, t = 0.6193, df = 9, p = 0.5511) or block morphine analgesia
Antinociception (agonist mode) (C57Bl/6 male mice [4]; 10 mg∙kg^−1 s.c., male mice): did not produce antinociception
Ethanol consumption (δOR KO mice; 7-hydroxyspeciogynine 3 mg∙kg^−1 s.c.): lack of effect
Ethanol consumption (δOR KO mice; 7-hydroxyspeciogynine 10 mg∙kg^−1 s.c.): significantly decreased ethanol consumption
Ethanol consumption, water consumption, ethanol preference (wild-type C57Bl/6 mice [5]; 3 mg∙kg^−1 s.c., WT female mice): did not significantly modulate ethanol consumption, water consumption, or ethanol preference
Δ ethanol intake, males and females pooled (wild-type C57Bl/6 mice [5]; 3 mg∙kg^−1 s.c., WT male and female mice): significant ethanol modulation effect
Δ ethanol preference, males and females pooled (wild-type C57Bl/6 mice [5]; [16]): significant decrease in ethanol preference
Δ water consumption, males and females pooled (wild-type C57Bl/6 mice [5]; [16]): concomitant increase in water consumption was evident
Decrease in ethanol consumption (wild-type C57Bl/6 mice [5]; 10 mg∙kg^−1 s.c., WT mice): 1.2 ± 0.2 g/kg
Reduction in ethanol consumption (wild-type C57Bl/6 mice [5]; 10 mg∙kg^−1 s.c., WT mice): 40 ± 7%
Ethanol preference (wild-type C57Bl/6 mice [5]; [17]): corresponding decrease in ethanol preference
Water consumption (wild-type C57Bl/6 mice [5]; [17]): concomitant increase in water consumption
Alcohol intake (wild-type C57Bl/6 mice [5]; 7-hydroxyspeciogynine 3 and 10 mg∙kg^−1 s.c., wild-type male mice): reduced alcohol intake in a dose-dependent manner
Conditioned place preference, extended protocol (C57Bl/6 male mice [6]; 10 mg∙kg^−1 s.c., four conditioning sessions, male WT mice): did not develop conditioned place preference
Ambulation (C57Bl/6 male mice [7]; 10 mg∙kg^−1 s.c., data from CPP experiment): did not significantly alter ambulation
IC50 (FLAG-mouse δOR [8]): 2.27 µM
Emax (FLAG-mouse δOR [8]; [15]): 76 ± 6%

C=C[C@H]1CN2CCc3c([nH]c4cccc(OC)c34)[C@@H]2C[C@@H]1/C(=C\OC)C(=O)OC [PAYN, paynantheine]
cAMP α (FLAG-mouse δOR [9]; normalized to Leu-enkephalin, ref Gutridge et al., 2020): 64 ± 13
IC50 (FLAG-mouse δOR [9]; [18]): 3.55 µM
cAMP pIC50 (FLAG-mouse δOR [9]; ref Gutridge et al., 2020): 5.6 ± 0.2
Ki (κOR; Binding Ki (µM)): 4 µM
Ki (κOR; Binding pKi): 3.16 µM
Convulsive behaviors, Racine level (WT and δOR KO mice; 30 mg∙kg^−1 i.p., wild type and δOR KO mice): 1–2
Functional activity at human ORs (human ORs): weak antagonist
Block of morphine analgesia (C57Bl/6 male mice [4]; 10 mg∙kg^−1 i.p., morphine 6 mg∙kg^−1 s.c.): does not block morphine analgesia
Block of morphine analgesia (C57Bl/6 male mice [4]; 30 mg∙kg^−1 i.p., morphine 6 mg∙kg^−1 s.c.): blocks morphine analgesia
Block of antinociception produced by 6 mg∙kg^−1 morphine (C57Bl/6 male mice [4]; 10 and 30 mg∙kg^−1 i.p., 10 min before morphine s.c.): dose-dependently blocked antinociception
Antinociceptive effect (agonist mode, %MPE) (C57Bl/6 male mice [4]; 10 and 30 mg∙kg^−1 i.p., 30 min): neither the 10 nor 30 mg∙kg^−1 dose displayed meaningful antinociceptive effects
cAMP α (FLAG-mouse κOR [10]; normalized to U50,488, ref Gutridge et al., 2020): 95 ± 5
IC50 (FLAG-mouse κOR [10]; [18]): 7.43 µM
Ki (μOR): 0.52 µM
cAMP pIC50 (HA-mouse µOR [11]): 5.4 ± 0.1
cAMP α (HA-mouse µOR [11]): 100 ± 0
IC50 (HA-mouse µOR [11]; read-out: cAMP IC50): 4.08 µM
Alcohol consumption (δOR KO mice; paynantheine 10 mg∙kg^−1, male δOR KO mice): decreases alcohol consumption in δOR KO mice
Conditioned place preference, extended CPP paradigm (C57Bl/6 male mice [6]; 10 mg∙kg^−1 i.p., four drug conditioning sessions, male mice): did not produce CPP nor CPA
Conditioned place preference, brief CPP paradigm (C57Bl/6 male mice [6]; 10 mg∙kg^−1 i.p., two drug conditioning sessions, male mice): modest conditioned place aversion
Block of morphine CPP (C57Bl/6 male mice [6]; 10 and 30 mg∙kg^−1 i.p. pretreatment, morphine 6 mg∙kg^−1, brief CPP): neither dose blocks morphine CPP
Hyperlocomotion at effective dose (C57Bl/6 male mice [12]): does not produce hyperlocomotion
Detectability in plasma over time [13]: undetectable after an hour
Tmax in plasma [13]: 10 min
Alcohol intake (wild-type C57Bl/6 mice [14]): dose-dependently decreases alcohol intake
Effect on hyperlocomotion induced by 6 mg∙kg^−1 morphine (C57Bl/6 male mice [7]; 10 and 30 mg∙kg^−1 i.p., data from CPP conditioning sessions): dose-dependently attenuated hyperlocomotion
